{"source": "paper PMC9378703", "about": "(Nature Communications, 2022)", "key": {"[1]": {"target": "T1, Uba1 (Saccharomyces cerevisiae, UniProt P22515, D472A)", "T1 construct": "residues 10-1024; N-terminal His-tag (pET28a); expressed in E. coli BL21 (DE3)", "T1 sequence (P22515 10-1024 D472A)": "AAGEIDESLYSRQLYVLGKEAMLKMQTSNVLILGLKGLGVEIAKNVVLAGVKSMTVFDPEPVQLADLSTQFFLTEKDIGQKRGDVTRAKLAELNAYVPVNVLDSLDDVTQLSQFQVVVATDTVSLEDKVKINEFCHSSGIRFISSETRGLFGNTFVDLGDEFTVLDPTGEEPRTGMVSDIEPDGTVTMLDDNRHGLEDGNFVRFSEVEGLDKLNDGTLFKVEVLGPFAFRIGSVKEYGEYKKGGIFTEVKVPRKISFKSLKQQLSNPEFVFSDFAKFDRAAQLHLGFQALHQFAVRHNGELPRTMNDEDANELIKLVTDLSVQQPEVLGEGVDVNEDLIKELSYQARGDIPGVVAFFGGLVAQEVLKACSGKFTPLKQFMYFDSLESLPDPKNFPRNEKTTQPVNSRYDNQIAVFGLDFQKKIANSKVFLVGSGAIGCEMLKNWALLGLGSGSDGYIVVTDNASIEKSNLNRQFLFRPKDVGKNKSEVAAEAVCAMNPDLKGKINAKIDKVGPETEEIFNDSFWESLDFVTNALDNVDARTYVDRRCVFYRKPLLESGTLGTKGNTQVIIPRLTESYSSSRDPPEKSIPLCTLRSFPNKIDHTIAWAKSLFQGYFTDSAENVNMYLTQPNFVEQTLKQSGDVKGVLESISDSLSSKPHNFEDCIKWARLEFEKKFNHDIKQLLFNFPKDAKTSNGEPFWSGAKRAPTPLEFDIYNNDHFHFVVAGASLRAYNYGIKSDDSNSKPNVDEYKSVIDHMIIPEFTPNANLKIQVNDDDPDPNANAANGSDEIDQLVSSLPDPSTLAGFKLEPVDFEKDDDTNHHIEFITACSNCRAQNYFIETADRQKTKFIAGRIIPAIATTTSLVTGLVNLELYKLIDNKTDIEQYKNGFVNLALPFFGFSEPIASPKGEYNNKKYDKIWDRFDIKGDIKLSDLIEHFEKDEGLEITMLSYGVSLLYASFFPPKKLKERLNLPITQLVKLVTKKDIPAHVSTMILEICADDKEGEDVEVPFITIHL", "test": "colorimetric ATPase assay (BIOMOL-GREEN phosphate, pyrophosphatase-coupled)", "assay_type": "biochemical", "conditions": "80 μM ubiquitin, 1 mM ATP, 2 mM MgCl2, pH 7.5, 30 °C; turnover"}, "[2]": {"target": "T2, Uba1 (Saccharomyces cerevisiae, UniProt P22515, D544E)", "T2 construct": "residues 10-1024; N-terminal His-tag (pET28a); expressed in E. coli BL21 (DE3)", "T2 sequence (P22515 10-1024 D544E)": "as the sequence (P22515 10-1024 D472A) above, with A463D, D535E counted along it", "test": "colorimetric ATPase assay (BIOMOL-GREEN phosphate, pyrophosphatase-coupled)", "assay_type": "biochemical", "conditions": "80 μM ubiquitin, 1 mM ATP, 2 mM MgCl2, pH 7.5, 30 °C; turnover"}}}
{"molecule": "Nc1ncnc2c1ncn2[C@@H]1O[C@H](COP(=O)(O)OP(=O)(O)OP(=O)(O)O)[C@@H](O)[C@H]1O", "note": "[ATP]", "values": [{"measurement": "colorimetric ATPase assay (BIOMOL-GREEN phosphate, pyrophosphatase-coupled)", "setting": "[1]", "result": "the D472A variant retained full activity as did the D472E or D544E substitutions"}, {"measurement": "colorimetric ATPase assay (BIOMOL-GREEN phosphate, pyrophosphatase-coupled)", "setting": "[2]", "result": "the D472A variant retained full activity as did the D472E or D544E substitutions"}]}
